Earlier results, collected in patent US20250127701A1, “Cosmetical use of a topically applicable rinse-of composition (RC)” (Wella Germany GmbH, priority 2023, published 2025).

What was measured:
[1] = target: T1, olfactory receptor OR2AT4 (Homo sapiens, UniProt A6NND4); conditions: receptor expressed in the epithelium of human hair follicles
T1 sequence (A6NND4 1-320): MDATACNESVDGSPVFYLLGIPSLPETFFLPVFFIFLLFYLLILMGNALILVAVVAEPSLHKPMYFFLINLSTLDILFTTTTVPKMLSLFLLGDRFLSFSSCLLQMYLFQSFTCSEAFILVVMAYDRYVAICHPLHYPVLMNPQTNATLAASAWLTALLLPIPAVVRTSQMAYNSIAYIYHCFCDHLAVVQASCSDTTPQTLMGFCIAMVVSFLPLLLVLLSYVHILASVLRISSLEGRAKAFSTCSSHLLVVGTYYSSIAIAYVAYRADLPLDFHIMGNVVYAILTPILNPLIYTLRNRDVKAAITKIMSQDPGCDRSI

[2] = system: hair shaft, hair matrix keratinocytes; conditions: studies have shown

| SMILES | Effect on the olfactory receptor OR2AT4 [1] | Effect on anagen duration [2] | Effect on hair shaft elongation [2] | Effect on proliferation of hair matrix keratinocytes [2] |
| --- | --- | --- | --- | --- |
| CC1=CCC(CCC(C)C(C)O)C1(C)C (stereo not shown) [Sandal pentanol, 3-methyl-5-(2,2,3-trimethylcyclopent-3-en-1-yl)pentan-2-ol] | stimulatory effect |  |  |  |
| Cn1c(=O)c2c(ncn2C)n(C)c1=O [caffeine, 1,3,7-trimethylxanthine] |  | prolonges anagen duration | enhances the hair shaft elongation | stimulates the proliferation of hair matrix keratinocytes |
